Measurements: patent US12485161B2, “Compositions comprising sulforaphane or a sulforaphane precursor and a milk thistle extract or powder” (Nutramax Laboratories, Inc., priority 2012, dated 2025)

Key:
[1] = test system: heme oxygenase-1 (HO-1); details: oral administration, mammary epithelium; cited from earlier work
[2] = test system: NAD(P)H:quinine oxidoreductase (NQO1); details: oral administration, mammary epithelium; cited from earlier work
[3] = test system: myrosinase; test: Conversion of glucoraphanin to sulforaphane in simulated intestinal fluid (Example 5); type: biochemical, broccoli; details: 38° C., 0.25 to 1.00 mmol/Liter ascorbic acid, FIG. 4
Experimental: Conversion of Glucoraphanin to Sulforaphane in the Presence of Simulated Intestinal Fluid. Simulated Intestinal Fluid (SW) powder, a commercially supplied concentrate closely approximating the human intestinal content in terms of composition, pH and ionic strength, was used. The experiment utilized a USP Dissolution Apparatus 2 (paddles), where into six dissolution vessels 500 mL of Simulated Intestinal Fluid was dispensed, along with 150 mg of freeze-dried broccoli sprout powder as a source of myrosinase. […] Aliquots were withdrawn every 15 minutes, and assayed for sulforaphane.

[4] = test system: HepG2 cells; test: Glutathione levels in HepG2 cells (o-phthalaldehyde fluorescence); type: cell-based, human
Experimental: The following study was conducted to determine the effect of the combination of sulforaphane and silibinin on glutathione levels. Glutathione plays an important role in the body, as it can serve as an antioxidant, detoxifier, and immunity enhancer. Decreased levels of glutathione can cause a patient to be susceptible to oxidative stress, illness, and cancer. Therefore, an increase in glutathione levels is a beneficial effect.
In the study, the human liver cancer cell line, HepG2 cells were treated with DMSO (vehicle control), sulforaphane (SFN), silibinin (Silib), or the combination of sulforaphane and silibinin, for 24 hours. Cell lysates were collected and glutathione levels were measured using o-phthalaldehyde (OPT) as a fluorescent reagent. FIG. 5 and FIG. 6 show the results of the study.
In Part 1 of the study, the effect of 0.5 μM SFN was compared to various concentrations of silibinin and to the combination of 0.5 μM SFN and silibinin at various concentrations. […] An increase in glutathione levels is a beneficial effect. The results are depicted in FIG. 5.
In Part 2 of the study, the effect of 2 μM SFN was compared to various concentrations of silibinin and to the combination of 2 μM SFN and silibinin at various concentrations. […] An increase in glutathione levels is a beneficial effect to detoxify cells. The results are depicted in FIG. 6.

C[S+]([O-])CCCC/C(=N\OS(=O)(=O)O)S[C@@H]1O[C@H](CO)[C@@H](O)[C@H](O)[C@H]1O (stereo partly drawn) [GR, 1-S-[(1E)-5-(methylsulfinyl)-N-(sulfonatooxy)pentanimidoyl]-1-thio-β-D-glucopyranose]
Elevated immunostaining of HO-1 enzyme [1]: 4 fold | Increase in NQO1 enzymatic activity [2]: 3 fold

O=C1O[C@H]([C@@H](O)CO)C(O)=C1O [ascorbic acid]
Yield of sulforaphane versus ascorbic acid concentration [3]: direct correlation between larger yield of sulforaphane and higher concentrations of ascorbic acid

C[S+]([O-])CCCCN=C=S (centres unmarked) [sulforaphane, 1-isothiocyanato-4-methylsulfinylbutane]
Glutathione levels compared to DMSO (vehicle) control ([4]; Part 1, 24 hours, 0.5 μM SFN, 100, 200, 300 μM Silib, FIG. 5): remained the same | Glutathione levels compared to the control ([4]; Part 2, 24 hours, 2 μM SFN, 100, 300 μM Silib, FIG. 6): remained the same
